From US9908848B2, “Amide derivatives of lactam based N-acylethanolamine acid amidase (NAAA) inhibitors” (The Regents of the University of California, priority 2013, dated 2018)

Tests used:
[1] = biological target: T1, Rat AC (r-AC), Acid Ceramidase (Rattus norvegicus, UniProt Q6P7S1); test: Rat AC (r-AC) assay, UPLC/MS; type: biochemical; conditions: read-out: r-AC UPLC/MS assay % inhib.
T1 construct: V5 (C); His (C); made in house; host or cells: HEK293 cells transfected with pEF6-rAC-V5/His, selected with G418; soluble fraction after freeze/thaw
T1 sequence (Q6P7S1 21-394): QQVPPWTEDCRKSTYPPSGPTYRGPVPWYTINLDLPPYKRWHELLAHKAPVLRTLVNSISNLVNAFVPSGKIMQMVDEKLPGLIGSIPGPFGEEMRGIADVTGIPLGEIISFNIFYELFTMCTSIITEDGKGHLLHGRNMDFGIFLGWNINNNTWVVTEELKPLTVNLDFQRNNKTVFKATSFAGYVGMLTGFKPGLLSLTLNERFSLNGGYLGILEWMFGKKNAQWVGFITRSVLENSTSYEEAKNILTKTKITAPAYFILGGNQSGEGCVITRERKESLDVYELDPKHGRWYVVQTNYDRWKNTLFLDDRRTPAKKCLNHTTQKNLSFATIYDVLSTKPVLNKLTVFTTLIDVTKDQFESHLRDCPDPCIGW
Method: The selectivity of selected compounds versus Acid Ceramidase (AC) was determined.
Rat AC (r-AC) was cloned from a brain cDNA library using primers based on the sequence obtained from the National Center for Biotechnology Information (NCBI) database: 5′rAC (5′-GACCATGCTGGGCCGTAGT-3′) (SEQ ID NO:1) and 3′rAC (5′-CCAGCCTATACAAGGGTCT-3′) (SEQ ID NO:2). The PCR (High Fidelity PCR Master, Roche) product was subcloned into a pEF6-V5/His vector (Invitrogen) to construct a mammalian expression vector encoding V5/His-tagged rat AC. HEK293 cells were transfected with pEF6-rAC-V5/His using Super-Fect reagent (Qiagen) and screened with G418 (0.3 mg/mL). Cells were suspended in 20 mM Tris HCl (pH 7.5) containing 0.32M sucrose, sonicated and centrifuged at 800×g for 15 min at 4° C. The supernatants were centrifuged again at 12,000×g for 30 min at 4° C. The pellets were suspended in phosphate-buffered saline (PBS) and subjected to 2 freeze-thaw cycles at −80° C. The suspensions were centrifuged at 105,000×g for 1 hour at 4° C. The supernatants containing recombinant AC were kept at −80° C. until use. Protein concentration was measured using the bicinchoninic acid (BCA) assay (Pierce). Recombinant rat AC (50 μg) was preincubated with inhibitors (final DMSO concentration 1%) in assay buffer (100 mM sodium phosphate, 0.1% Nonidet P-40, 150 mM NaCl, 3 mM DTT, 100 mM sodium citrate, pH 4.5) for 30 min at 37° C. Reactions were started by the addition of 100 μM N-lauroyl ceramide (Nu-Chek Prep, Elysian, Minn.) and carried on for 30 min at 37° C. Reactions were stopped by addition of a mixture of chloroform/methanol (2:1, vol/vol) containing 1 nmol of heptadecanoic acid (HDA; NuChek Prep). The organic phases were collected, dried under N2, and analyzed by LC-MS in the negative-ion mode using […] (HDA) as internal standard (m/z=199 for lauric acid, m/z=269 for HDA). HDA was eluted on an XDB Eclipse C18 column isocratically at 2.2 mL/min for 1 min with a solvent mixture of 95% methanol and 5% water, both containing 0.25% acetic acid and 5 mM ammonium acetate. The column temperature was 50° C. Electrospray ionization (ESI) was in the negative mode, capillary voltage as 4 kV, and fragmentor voltage was 100 V. N2 was used as drying gas at a flow rate of 13 L/min and a temperature of 350° C. Nebulizer pressure was set at 60 psi. We monitored […] in the selected-ion monitoring (SIM) mode using HDA as internal standard. Calibration curves were generated using commercial lauric acid (Nu-Chek Prep; m/z=199).

human NAAA = biological target: T2, human NAAA (Homo sapiens, UniProt Q02083); test: Fluorogenic h-NAAA assay; type: biochemical; conditions: recombinant HEK-hNAAA preparation
T2 construct: made in house; host or cells: HEK293 cells, stably transfected; soluble fraction after freeze/thaw
T2 sequence (Q02083 29-359): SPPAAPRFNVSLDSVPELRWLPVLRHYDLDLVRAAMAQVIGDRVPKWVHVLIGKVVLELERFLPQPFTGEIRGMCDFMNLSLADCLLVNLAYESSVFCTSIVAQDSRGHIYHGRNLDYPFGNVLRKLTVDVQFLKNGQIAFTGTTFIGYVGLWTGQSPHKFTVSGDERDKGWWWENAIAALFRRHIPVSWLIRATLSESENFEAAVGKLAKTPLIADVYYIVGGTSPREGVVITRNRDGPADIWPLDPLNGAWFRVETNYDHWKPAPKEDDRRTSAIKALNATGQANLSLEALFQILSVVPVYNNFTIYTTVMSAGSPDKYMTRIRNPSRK
Method: Hek293 cells stably transfected with the human NAAA coding sequence cloned from a human spleen cDNA library were used as enzyme source. Recombinant HEK-hNAAA pellets were resuspended in homogenizing buffer, and sonicated. Samples were centrifuged at 800×g for 15 min at 4° C. and the supernatants were ultracentrifuged at 12,000×g for 30 min at 4° C. The pellets were resuspended in PBS pH 7.4 on ice and subjected to a freeze/thaw cycle at −80° C. (two freeze/thaw cycles at −80° C. for Examples 34-37). The suspension was finally centrifuged at 105,000×g for 1 h at 4° C. Protein concentration was measured and samples stored at −80° C. until use.
The assay was run in Optiplate 96-wells black plates, in a total reaction volume of 200 μL. NAAA protein preparation (4.0 μg for Examples except 34-37, which were 20.0 μg) was pre-incubated for 10 min with various concentrations of test compounds or vehicle control (5% DMSO) in 100 mM citrate/phosphate buffer (pH 4.5) containing 3.0 mM DTT, 0.1% Triton X-100, 0.05% BSA, 150 mM NaCl. N-(4-methyl-2-oxo-chromen-7-yl)-hexadecanamide was used as a substrate (5.0 μM) and the reaction carried over for 30 min at 37° C. The samples were then read in a Perkin Elmer Envision plate reader using an excitation wavelength of 360 nm and emission 460 nm. IC50 values were calculated by non-linear regression analysis of log [concentration]/inhibition curves using GraphPad Prism 5 (GraphPad Software Inc., CA—USA) applying a standard slope curve fitting.

Row | inhibition at 1 µM [1] | IC50 (human NAAA) | SMILES
1 | 25% | 108 nM | CCCCCCCCC(=O)N[C@H]1CNC1=O [Example 3, N-[(3S)-2-Oxoazetidin-3-yl]-nonanamide]
2 | 25% | 334 nM | O=C(CCCCCCc1ccccc1)N[C@H]1CNC1=O [Example 7, 7-Phenyl-N-[(3S)-2-Oxoazetidin-3-yl]-heptanamide]
